pIC50: −log10 of the molar value. Where “and” joins values, the source holds several entries; their conditions need not be identical. Identical values can stand only once. Like-named read-outs stand apart in the source and are kept apart here.
How the values were obtained:
143B cells = assay: Membrane potential measurement by TMRM fluorescence; format: cell-based, human
Protocol: 143B cells were seeded at 5 × 10^5 cells per 10 cm^2 well in DMEM containing 10 % FBS. […] The detached cells from each well were incubated in PBS containing 25 pg/mL tetramethylrhodamine, methyl ester (TMRM) and 20 μg/mL Hoescht stain for 20 min at 37 °C then washed twice and re-suspended in 200 μL PBS. TMRM fluorescence was detected using a NucleoCounter® NC 3000 cytometer with excitation at 530 nm and emission at 575 nm, with the Hoescht stain used to check for consistent cell density between samples.

mouse heart mitochondria = assay: ADP-stimulated rotenone-sensitive OCR in isolated mouse heart mitochondria; format: biochemical; set-up: rotenone sensitive OCR after ADP stimulation, individual replicates / rotenone sensitive OCR after ADP stimulation, average / rotenone sensitive OCR after 15 mins, average: unit not given here; conditions: for rotenone sensitive OCR after ADP stimulation, % of control, average / rotenone sensitive OCR after ADP stimulation, average: average of replicates; for rotenone sensitive OCR after ADP stimulation, % of control, individual replicates: replicate 1-11; for rotenone sensitive OCR after ADP stimulation, individual replicates: replicate 1-12
Protocol: Complex I and mitochondrial membranes were prepared from Bos taurus (bovine) heart. Intact mitochondria were isolated from rat liver and mouse heart and liver. Membranes were prepared from mouse heart mitochondria by 5 s bursts of sonication at 4 °C and collected by centrifugation (75,000 × g, 1 h).
Isolated mitochondria were monitored using a Seahorse XF96 extracellular flux analyzer at 32 °C. Mouse heart mitochondria, and mouse and rat liver mitochondria were plated into XF96 plates at 4 and 16–20 μg per well, respectively, in 220 mM mannitol, 70 mM sucrose, 10 mM KH2PO4, 5 mM MgCl2, 1 mM EGTA, 0.2 % fatty acid-free BSA, and 2 mM HEPES (pH 7.4 at 37 °C) with 10 mM glutamate and 10 mM malate and adhered by centrifugation (2000 × g, 20 min, 4 °C). The medium was supplemented with a further 5 mM glutamate and 5 mM malate and the mitochondria incubated for 15 min. Then two baseline readings were taken before the biguanides were added at IC50/5. […] Rotenone (2 μM) was added at the end of the experiment. Data from wells with failed port injections were excluded from the analyses. The RCR values (state III versus state IV respiration) were 3.4, 4.8, and 4.6 for mouse heart, rat liver, and mouse liver, respectively.

permeabilized 143B cells = assay: ADP-stimulated rotenone-sensitive OCR in permeabilized 143B cells; format: cell-based, human; set-up: rotenone sensitive OCR after ADP stimulation, individual replicates / rotenone sensitive OCR after ADP stimulation, average: unit not given here; conditions: 143B permeabilised cells; for rotenone sensitive OCR after ADP stimulation, % of control, individual replicates / rotenone sensitive OCR after ADP stimulation, individual replicates: replicate 1-11
Protocol: For permeabilized cell experiments, cells were seeded into XF96 plates at 0.9–1.1 × 10^4 per well and incubated for 48 h at 37 °C in 5 % CO2. Then, the growth medium was exchanged for assay buffer containing 3 nM plasma membrane permeabilizer ‘PMP’ (Seahorse Biosciences Inc.), 10 mM glutamate, 10 mM malate, 220 mM mannitol, 70 mM sucrose, 10 mM KH2PO4, 5 mM MgCl2, 1 mM EGTA, 0.2 % fatty acid-free bovine serum albumin (BSA), and 2 mM HEPES (pH 7.4 at 37 °C). […] The biguanides were allowed to accumulate for 30 min, then respiration was […] by the addition of 4 mM ADP. Rotenone was added (2 μM) at the end of the experiment.
Rotenone-sensitive OCRs were calculated by subtracting the rotenone-insensitive rates (determined at the end of the experiment). OCRs were normalized by dividing by the OCR recorded immediately prior to the addition of biguanide. For rate of uptake calculations, the OCRs at time points after biguanide addition were divided by the OCRs at the same time points in control experiments. Data from wells with failed port injections were excluded from the analyses. The respiratory control ratio (RCR) values (state III versus state IV respiration) were ~11 and ~6 for permeabilized MDBK and 143B cells, respectively.

[1] = biological target: mouse heart mitochondrial membranes (complex I) (Mus musculus, UniProt P03888+P03899+Q91WD5+Q9DC70); assay: NADH:O2 oxidoreduction by mouse heart mitochondrial membranes; format: biochemical; conditions: for remaining activity at 130 µM: inhibitor 0.13 mM; for remaining activity at 250 µM: inhibitor 0.25 mM; for remaining activity at 500 µM: inhibitor 0.50 mM; for remaining activity at 1000 µM: inhibitor 1.00 mM; for remaining activity at 5000 µM: inhibitor 5.00 mM; for remaining activity at 10000 µM: inhibitor 10.00 mM; for LogIC50 (best fit value): log of IC50 in mM
Sequence of mouse heart mitochondrial membranes (complex I) (P03899 whole entry): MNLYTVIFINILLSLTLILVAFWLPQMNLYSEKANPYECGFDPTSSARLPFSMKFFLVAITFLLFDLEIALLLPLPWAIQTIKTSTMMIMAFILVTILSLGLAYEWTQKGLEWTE
Sequence of mouse heart mitochondrial membranes (complex I) (P03888 whole entry): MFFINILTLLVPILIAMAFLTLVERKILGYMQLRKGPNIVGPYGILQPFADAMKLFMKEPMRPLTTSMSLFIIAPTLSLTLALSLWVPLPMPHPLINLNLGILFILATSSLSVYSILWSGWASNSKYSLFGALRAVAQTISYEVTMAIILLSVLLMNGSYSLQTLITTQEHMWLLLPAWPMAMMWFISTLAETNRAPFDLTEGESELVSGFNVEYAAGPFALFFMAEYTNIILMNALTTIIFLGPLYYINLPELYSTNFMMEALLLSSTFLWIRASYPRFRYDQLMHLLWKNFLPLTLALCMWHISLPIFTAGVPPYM
Sequence of mouse heart mitochondrial membranes (complex I) (Q9DC70 36-224): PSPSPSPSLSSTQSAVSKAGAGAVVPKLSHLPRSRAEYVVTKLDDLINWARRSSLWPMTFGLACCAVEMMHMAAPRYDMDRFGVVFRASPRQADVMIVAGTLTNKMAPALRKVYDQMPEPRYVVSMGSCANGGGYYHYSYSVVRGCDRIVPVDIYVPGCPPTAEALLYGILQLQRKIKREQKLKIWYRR
Sequence of mouse heart mitochondrial membranes (complex I) (Q91WD5 34-463): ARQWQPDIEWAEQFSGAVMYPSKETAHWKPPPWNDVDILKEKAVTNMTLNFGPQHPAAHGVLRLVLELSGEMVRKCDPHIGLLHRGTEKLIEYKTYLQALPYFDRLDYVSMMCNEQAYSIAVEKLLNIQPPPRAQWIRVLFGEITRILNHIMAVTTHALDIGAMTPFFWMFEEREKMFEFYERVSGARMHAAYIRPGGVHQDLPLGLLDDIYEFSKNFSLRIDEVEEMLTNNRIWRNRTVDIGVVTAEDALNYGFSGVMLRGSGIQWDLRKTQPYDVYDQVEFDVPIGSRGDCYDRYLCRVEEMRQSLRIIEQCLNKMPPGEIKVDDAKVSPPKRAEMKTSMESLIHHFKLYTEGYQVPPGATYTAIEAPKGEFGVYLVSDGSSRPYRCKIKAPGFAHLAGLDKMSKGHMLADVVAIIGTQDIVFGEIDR
Summary of the method: (§1)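 At 32 °C, rates were taken by linear regression of NADH absorbance loss after NADH start. Isolated enzyme (0.5 μg mL^−1): 200 μM decylubiquinone, 200 μM NADH, pH 7.2 Tris with 0.15 % asolectin and CHAPS. Membranes (5 μg mL^−1): 200 μM NADH, 0.15 mM cytochrome c, pH 7.4 Tris-sucrose. IC50s carry 95 % confidence intervals.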

[2] = biological target: isolated bovine heart complex I (Bos taurus, UniProt P03887+P03898+P17694+P42026); assay: NADH:decylubiquinone oxidoreduction by isolated complex I; format: biochemical; conditions: bovine heart purified mitochondrial complex I
Sequence of isolated bovine heart complex I (P42026 38-216): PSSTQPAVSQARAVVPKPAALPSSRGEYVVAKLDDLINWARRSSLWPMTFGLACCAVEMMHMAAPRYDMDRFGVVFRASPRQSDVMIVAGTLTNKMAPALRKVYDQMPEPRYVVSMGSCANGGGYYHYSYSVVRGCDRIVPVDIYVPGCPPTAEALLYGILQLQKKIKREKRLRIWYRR
Sequence of isolated bovine heart complex I (P17694 34-463): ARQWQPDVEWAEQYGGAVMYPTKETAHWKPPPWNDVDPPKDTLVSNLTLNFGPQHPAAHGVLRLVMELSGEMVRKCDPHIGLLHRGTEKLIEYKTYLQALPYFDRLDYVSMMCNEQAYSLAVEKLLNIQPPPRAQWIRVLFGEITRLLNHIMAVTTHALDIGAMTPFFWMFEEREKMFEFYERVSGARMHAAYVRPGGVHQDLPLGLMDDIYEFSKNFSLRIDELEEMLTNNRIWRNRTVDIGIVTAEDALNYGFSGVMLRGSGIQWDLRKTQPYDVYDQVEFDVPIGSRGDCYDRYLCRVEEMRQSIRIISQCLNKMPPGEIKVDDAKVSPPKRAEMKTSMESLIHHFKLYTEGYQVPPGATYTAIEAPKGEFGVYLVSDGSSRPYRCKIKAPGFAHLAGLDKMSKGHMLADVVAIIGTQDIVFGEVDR
Sequence of isolated bovine heart complex I (P03898 whole entry): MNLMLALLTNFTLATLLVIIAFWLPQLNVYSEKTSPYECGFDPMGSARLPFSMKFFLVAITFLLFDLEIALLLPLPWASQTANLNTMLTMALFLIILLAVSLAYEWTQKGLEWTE
Sequence of isolated bovine heart complex I (P03887 whole entry): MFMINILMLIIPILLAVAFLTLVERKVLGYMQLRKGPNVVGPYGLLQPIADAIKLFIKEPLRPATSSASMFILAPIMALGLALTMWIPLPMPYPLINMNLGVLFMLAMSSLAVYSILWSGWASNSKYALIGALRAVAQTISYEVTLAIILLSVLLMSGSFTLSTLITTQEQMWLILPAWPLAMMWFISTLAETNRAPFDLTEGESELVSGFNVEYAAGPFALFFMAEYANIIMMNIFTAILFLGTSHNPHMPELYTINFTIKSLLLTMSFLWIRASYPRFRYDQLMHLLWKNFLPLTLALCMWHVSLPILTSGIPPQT
Summary of the method: as §1

[3] = Octanol/PBS partition coefficient, shake-flask method; format: physicochemical; conditions: 32 °C, pH 7.4, n = 3
Protocol: Octanol/PBS partition coefficients were measured by the shake-flask method at 32 °C, pH 7.4.

[4] = read-out: average % (rate, % of no-inhibitor control)
[5] = inhibitor 2.50 mM, read-out: average % (rate, % of no-inhibitor control)

SMILES | rotenone sensitive OCR after ADP stimulation, % of control, average (mouse heart mitochondria) | rotenone sensitive OCR after ADP stimulation, average (mouse heart mitochondria) | rotenone sensitive OCR after ADP stimulation, % of control, individual replicates (mouse heart mitochondria) | rotenone sensitive OCR after ADP stimulation, individual replicates (mouse heart mitochondria) | rotenone sensitive OCR after ADP stimulation, % of control, individual replicates (permeabilized 143B cells) | rotenone sensitive OCR after ADP stimulation, individual replicates (permeabilized 143B cells) | HillSlope (best fit value) ([1]; Prism variable slope fit) | remaining activity at 130 µM [1, 4] [%] | remaining activity at 250 µM [1, 4] [%] | remaining activity at 500 µM [1, 4] [%] | remaining activity at 1000 µM [1, 4] [%] | remaining activity at 5000 µM [1, 4] [%] | remaining activity at 10000 µM [1, 4] [%] | LogIC50 (best fit value) ([1]; Prism variable slope fit) | other results
[H]/N=C(/N)N/C(=N/[H])NCCc1ccccc1 [phenformin, reference compound] | 30.06 % of control | 73.69 | 34.41 % of control and 27.92 % of control and 37.45 % of control and 23.80 % of control and 31.47 % of control and 29.88 % of control and 25.27 % of control and 30.29 % of control | 84.35 and 68.44 and 91.80 and 58.33 and 77.13 and 73.26 and 61.95 and 74.26 | 10.68 % of control and 13.07 % of control and 7.19 % of control and 19.54 % of control and 11.54 % of control and 11.56 % of control and 7.70 % of control and 13.62 % of control and 4.19 % of control and 11.40 % of control and 4.31 % of control | 25.49 and 31.21 and 17.16 and 46.64 and 27.56 and 27.59 and 18.38 and 32.52 and 10.00 and 27.22 and 10.30 | -0.7733 | 80.6 | 70.4 | 59.3 | 46.6 | 18.7 | 12.3 | -0.09624 | TMRM fluorescence, % of the control value (143B cells; after 6.5 h, phenformin at IC50/10 (34 μM), FCCP at 1 μM, n = 3): 22.4 ± 2.9%; mean-y (TMRM) (143B cells; individual replicates, phenformin 6.5 hours): 3427.6 and 3669.9 and 3614.5; TMRM average (143B cells; n 3, phenformin 6.5 hours): 3570.67; TMRM average, % control (143B cells; n 3, phenformin 6.5 hours): 22.44 % control; rotenone sensitive OCR after 15 mins, average (mouse heart mitochondria; ADP and phenformin added simultaneously, n = 8): 418.601; rotenone sensitive OCR after 15 mins, % control (no phenformin) (mouse heart mitochondria; ADP and phenformin added simultaneously, n = 8 with phenformin, n = 6 control): 85 ± 10 % control and 85.2397 % control; oxygen consumption, % of the control value (mouse heart mitochondria; phenformin at IC50/5 accumulated in the absence of ADP before ADP stimulation): 30%; remaining activity at 2000 µM ([1]; inhibitor 2.00 mM, read-out: average % (rate, % of no-inhibitor control)): 33.2%; pIC50 ([1]; read-out: IC50 (best fit value), Prism variable slope fit, Bottom 0, Top 100): 3.10
NC(N)=NC(N)=NCCc1ccc(Cl)cc1 [compound 1, 2-[2-(4-chlorophenyl)ethyl]-1-(diaminomethylidene)guanidine] | 42.96 % of control | 104.05 | 59.58 % of control and 56.94 % of control and 47.63 % of control and 43.78 % of control and 42.25 % of control and 48.37 % of control and 28.35 % of control and 16.80 % of control | 144.30 and 137.90 and 115.35 and 106.02 and 102.33 and 117.15 and 68.67 and 40.69 | 28.33 % of control and 12.14 % of control and 11.88 % of control and 16.92 % of control and 4.82 % of control and 10.72 % of control and 0.16 % of control and 5.78 % of control and 8.84 % of control and 6.27 % of control | 67.63 and 28.97 and 28.36 and 40.38 and 11.50 and 25.59 and 0.37 and 13.80 and 21.11 and 14.98 | -0.8311 | 75.2 | 62.1 | 47.6 | 36.7 | 9.86 | 8.63 | -0.3323 | HillSlope (best fit value) ([2]; Prism fit, no std. error): 1; pIC50 ([2]; Prism log(inhibitor) vs. response fit, Bottom 0, Top 100, read-out: IC50 (best fit value)): 3.71; remaining activity at 50 µM ([2]; inhibitor 0.05 mM, read-out: average % (rate, % of no-inhibitor control)): 78.7%; remaining activity at 100 µM ([2]; inhibitor 0.10 mM, read-out: average % (rate, % of no-inhibitor control)): 67.7%; remaining activity at 250 µM ([2]; inhibitor 0.25 mM, read-out: average % (rate, % of no-inhibitor control)): 44.8%; remaining activity at 500 µM ([2]; inhibitor 0.50 mM, read-out: average % (rate, % of no-inhibitor control)): 28.6%; remaining activity at 1000 µM ([2]; inhibitor 1.00 mM, read-out: average % (rate, % of no-inhibitor control)): 15.1%; remaining activity at 2500 µM [2, 5]: 2.59%; remaining activity at 5000 µM ([2]; inhibitor 5.00 mM, read-out: average % (rate, % of no-inhibitor control)): 1.32%; LogIC50 (best fit value) ([2]; log of IC50 in mM, Prism fit): -0.7098; logP [3]: 0.149; rotenone sensitive OCR after ADP stimulation, % of control, average (permeabilized 143B cells; average of replicates): 10.59 % of control; rotenone sensitive OCR after ADP stimulation, average (permeabilized 143B cells; average of replicates): 25.27; pIC50 ([1]; Prism variable slope fit, Bottom 0, Top 100, read-out: IC50 (best fit value)): 3.33; remaining activity at 2500 µM [1, 5]: 19.7%

Source: article PMC4977651, “Molecular features of biguanides required for targeting of mitochondrial respiratory complex I and activation of AMP-kinase” (BMC Biology, 2016)
